From paper PMC9861386, “N-Heterocyclic Carbene-Iridium Complexes as Photosensitizers for In Vitro Photodynamic Therapy to Trigger Non-Apoptotic Cell Death in Cancer Cells” (Molecules, 2023)

Experiments:
Format in all cases: cell-based, human
[1] = system: MCF7/FasR and MCF7/FasR/Bcl-xL cells; experiment: Bcl-xL dependence of cell death, MTT in MCF7/FasR vs MCF7/FasR/Bcl-xL; conditions: complexes: 458 nm irradiation, 10 nM to 1 µM, TNFα 100 ng/mL, 72 h
Text: To determine the mechanism of cell death, we used MCF7 cells transfected to express the human Fas receptor (FasR) or doubly transfected to express the human Fas receptor and human Bcl-xL [75]. Since MCF7 cells express the TNF receptor endogenously, this allowed the study of both Fas- and TNFα-mediated apoptosis in the same cell model to assess whether cell death was dependent on the Bcl-2 family of mitochondrial proteins such as Bcl-xL. […]
Mitochondrial outer membrane permeabilization (MOMP), which leads to rapid cell death through the release of mitochondrial proteins (including cytochrome c) that activate executioner caspases, is the critical event in intrinsic apoptosis. […] We then assessed whether the cell death induced by our complexes could be abrogated by the overexpression of Bcl-xL.
A tetrazolium-based MTT reagent (3-(4,5-dimethylthiazol-2-yl)-2,5-diphenyltetrazolium bromide) was used to determine cell viability, as previously described. […] After solubilization with 500 μL of lysis buffer (DMSO), formazan was quantified by spectrophotometry with a microplate reader at 570 nm absorbance (ClarioSTAR, BMG LabTech, Champigny-sur-Marne, France). […] All results were calculated from data obtained in at least three independent experiments. […]
Figure 13 Evaluation of apoptotic biomarkers. […] (B) MTT, ATP and GSH assays were evaluated in duplicate samples. […]

[2] = system: MCF7/FasR and MCF7/FasR/Bcl-xL cells; experiment: GSH quantification (GSH-Glo); conditions: complex 4a all doses with 458 nm irradiation; TNFα 100 ng/mL; 72 h
Description: ATP and glutathione (GSH) contents were measured with the Promega CellTiter-Glo (Cat#G7570) and GSH-Glo (cat#6911) luminescent assays, respectively, according to the manufacturer’s recommendations.
Figure 13 Evaluation of apoptotic biomarkers. MCF7/FasR and MCF7/FasR/Bcl-xL cells were irradiated at 458 nm in presence of the indicated concentration of complex 4a or treated with […] TNFα for 72 h. (A) Cytosolic extracts from MCF7/FasR and MCF7/FasR/Bcl-xL cells were separated by SDS-PAGE and probed with anti-PARP, anti-caspase-7 and anti-caspase-8. Migrations indicated are: full-length PARP p113, cleaved PARP p89, full-length caspase-7 and full-length caspase-8. (B) MTT, ATP and GSH assays were evaluated in duplicate samples. Data are expressed as percent (%) of untreated cells and are the means of 3 independent experiments (***, p < 0.0001, NS, not significant).

[3] = system: MCF7/FasR cells; experiment: Cell death with or without pan-caspase inhibitor z-VAD-fmk, MTT; conditions: TNFα 100 ng/mL, 72 h, MCF7/FasR, MTT
Text: To determine the mechanism of cell death, we used MCF7 cells transfected to express the human Fas receptor (FasR) or doubly transfected to express the human Fas receptor and human Bcl-xL [75]. Since MCF7 cells express the TNF receptor endogenously, this allowed the study of both Fas- and TNFα-mediated apoptosis in the same cell model to assess whether cell death was dependent on the Bcl-2 family of mitochondrial proteins such as Bcl-xL. […] This is consistent with findings that death receptors such as FasR and TNFR can mediate apoptosis through both the extrinsic pathway (mitochondria-independent by directly activating executioner caspases via upstream caspase-8) and the intrinsic (mitochondrial) pathway controlled by the Bcl-2 family of proteins.
We next evaluated the effect of the pan-caspase inhibitor z-VAD-fmk on caspase signaling. As expected, the treatment with z-VAD-fmk rendered MCF7/FasR cells resistant to TNFα-induced PARP and caspase-7 processing (Figure 14A) and to the loss of cell viability (Figure 14B).
A tetrazolium-based MTT reagent (3-(4,5-dimethylthiazol-2-yl)-2,5-diphenyltetrazolium bromide) was used to determine cell viability, as previously described. After 72 h of treatment at 37 °C and 5% CO2, cells were incubated with 25 μL MTT solution (5 mg/mL; Sigma-Aldrich) for 4 h. After solubilization with 500 μL of lysis buffer (DMSO), formazan was quantified by spectrophotometry with a microplate reader at 570 nm absorbance (ClarioSTAR, BMG LabTech, Champigny-sur-Marne, France). […] All results were calculated from data obtained in at least three independent experiments.
Figure 11 Bcl-xL and z-VAD-fmk inhibited by Fas- or TNFα-induced cell death in MCF7 cells. […] Cell death was assessed by MTT assay. […]
Figure 14 Evaluation of apoptotic biomarkers. […] (B) Cell viability was evaluated in duplicate samples. Data are expressed as percent (%) of untreated cells and are the means of 3 independent experiments (***, p < 0.0001, NS, not significant).

TNFα
effect of Bcl-xL overexpression on loss of cell viability [1]: strongly inhibited by Bcl-xL | level of reduced GSH [2]: decreased | reduction in cell viability [3]: 65–85%
